Bounds are passed on as bounds.

One series addresses T1, GIPR (Homo sapiens, UniProt P48546).
T1 construct: host or cells: CHO
T1 sequence (P48546 22-466): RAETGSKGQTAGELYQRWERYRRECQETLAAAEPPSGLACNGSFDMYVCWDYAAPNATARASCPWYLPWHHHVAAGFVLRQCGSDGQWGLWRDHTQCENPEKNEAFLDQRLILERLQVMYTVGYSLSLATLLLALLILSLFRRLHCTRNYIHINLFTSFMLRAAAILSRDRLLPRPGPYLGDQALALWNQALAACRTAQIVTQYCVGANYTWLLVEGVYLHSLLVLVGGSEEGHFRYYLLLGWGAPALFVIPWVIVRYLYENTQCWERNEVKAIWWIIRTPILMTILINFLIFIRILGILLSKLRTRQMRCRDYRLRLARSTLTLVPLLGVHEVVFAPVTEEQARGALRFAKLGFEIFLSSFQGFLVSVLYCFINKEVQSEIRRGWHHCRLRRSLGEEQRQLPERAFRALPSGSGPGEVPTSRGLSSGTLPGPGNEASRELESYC
As to the kind of experiment: In vitro agonistic activity on GIPR (cAMP assay). Format: cell-based. Particulars: CHO cell line; for Agonistic activity on GIPR Max Activity (%): Max Dose 20 nM. The protocol: The cell lines were constructed by Shanghai WuXi AppTec.
The compounds to be assayed were serially diluted 4-fold with Bravo to obtain 10 concentrations, with a starting concentration of 30 μM.
1) 100 nL of the compound was transferred to an OptiPlate-384 plate using Echo.
2) The OptiPlate-384 plate was centrifuged at 1000 rpm for 5 seconds.
1) A GLP-1R/GIPR/GCGR cell cryopreservation tube was quickly placed in warm water at 37° C. to thaw.
2) The cell suspension was transferred to a 15 mL centrifuge tube, and gently washed with 10 ml of HBSS.
3) The centrifuge tube was centrifuged at 1000 rpm at room temperature for 1 minute.
4) The supernatant was discarded.
5) The cells at the bottom were gently dispersed and gently washed with 10 ml of HBSS. The cells were centrifuged and sedimented, and finally resuspended with the assay buffer.
6) Vi-cell was used to measure the cell density and viability.
7) The concentration of GLP-1R/GIPR/GCGR cells was diluted to 2.0*105/mL with the assay buffer.
8) […] of the diluted cell suspension was transferred to the OptiPlate-384 plate.
9) The plate was incubated at room temperature for 30 minutes.
1) 10 μL of 800 nM gradient diluted cAMP standard was added into an empty well of the OptiPlate-384 plate.
2) 10 μL of cAMP assay reagent was added.
3) The OptiPlate-384 plate was covered with a TopSeal-A film and incubated at room temperature for 60 minutes.
The TopSeal-A was peeled off and the plate was read on the EnVision.
On the technique in general: Cyclic AMP is a second messenger, typically raised through Gs and lowered through Gi signalling.

The next series relates to human plasma albumin. In words: Plasma protein binding (PPB), human. It counts as in vitro ADME. Also noted: key: NA indicates that the plasma protein binding is too high, and no free drug is detected at a normal plasma protein concentration. The following applies: ultracentrifugation. The protocol:
The binding degree of the assay compound to human/mouse plasma albumin was studied.
1. Matrix preparation: on the day of the assay, plasma was thawed in cold water and centrifuged at 3220 rpm for 5 min to remove all clots. The pH of the resulting plasma was measured and adjusted to 7.4±0.1 using 1% phosphoric acid or IN sodium hydroxide as needed.
2. Dilution procedure for the assay compound: the assay compound was dissolved in dimethyl sulfoxide (DMSO) to prepare stock solutions with concentrations of 10 mM and 2 mM, respectively. A 40 μM working solution was prepared by diluting 2 μL of stock solution (2 mM) with 98 μL of DMSO. A 400 μM working solution of the control compound was prepared by diluting 10 μL of stock solution with 240 μL of DMSO. The working solution of the compound (5 μL) was mixed well with a blank matrix (995 μL) at a ratio of 1:200 to prepare a loading matrix.
3.1 An equal volume of 30 μL of loading matrix (n=2) was transferred to a sample collection plate to prepare a time 0 (T0) sample for residue determination. […]
3.4 At the end of centrifugation, 30 μL of protein-free samples and 30 μL of T samples were transferred from the second layer of the supernatant (below the top layer) to a new sample collection plate. […] The mixture was centrifuged at 4000 rpm for 20 min and 100 μL of supernatant from each sample was analyzed by LC-MS/MS.

Series [1] is described as follows: Pharmacokinetic evaluation in mice. Format: in vivo. The following applies: mouse, plasma, 0.048 mg/kg, C57BL/6 mice, single SC 0.048 mpk; for half-life: read-out: Half-life T1/2 (converted); for AUC(0-t): read-out: Integral of the SC concentration AUC0-72 h; for Cmax: read-out: Maximum plasma concentration. The method, then:
Pharmacokinetics of the compound in C57BL/6 mice were assayed.
The pharmacokinetic characteristics of the compound in rodents after a subcutaneous injection were assayed using the standard protocol. In the assay, the candidate compound was formulated into a clear solution and given to mice by a single subcutaneous injection (SC, 0.048 mpk). The solvent of the subcutaneous injection was citrate buffer (20 mM, pH=7). Whole blood was collected, and plasma was prepared. Drug concentration was analyzed by LC-MS/MS method, and pharmacokinetic parameters were calculated using Phoenix WinNonlin software.

Series [2] can be described thus: Plasma stability assay (PLS), human. The following applies: pH 7.4, 37° C., read-out: PLS (human) T1/2. Format: in vitro ADME.

As usually defined, the EC50 is the concentration that produces a half-maximal response. As usually defined, the Tmax is the time from dosing to the highest level. In the case of `CC(C)C[C@H](NC(=O)[C@H](CC(C)C)NC(=O)[C@H](Cc1c[nH]c2ccccc12)NC(=O)[C@@H]1CCCCNC(=O)CN(C(=O)COCCOCCNC(=O)COCCOCCNC(=O)CC[C@H](NC(=O)CCCCCCCCCCCCCCCCCCC(=O)O)C(=O)O)CC(=O)NCCCC[C@H](NC(=O)[C@H](C)NC(=O)[C@H](CCCCN)NC(=O)[C@H](CCCCN)NC(=O)[C@H](CCC(=O)O)NC(=O)[C@H](CC(=O)O)NC(=O)[C@H](CC(C)C)NC(=O)[C@H](Cc2ccc(O)cc2)NC(=O)[C@H](CCCCN)NC(=O)[C@H](CO)NC(=O)[C@H](Cc2ccc(O)cc2)NC(=O)[C@H](CC(=O)O)NC(=O)[C@H](CO)NC(=O)[C@@H](NC(=O)[C@H](Cc2ccccc2)NC(=O)[C@@H](NC(=O)CNC(=O)[C@H](CCC(N)=O)NC(=O)C(C)(C)NC(=O)[C@@H](N)Cc2c[nH]cn2)[C@@H](C)O)[C@@H](C)O)C(=O)N[C@@H](CCC(=O)O)C(=O)N[C@@H](Cc2ccccc2)C(=O)N[C@@H](C(C)C)C(=O)N1)C(=O)N[C@@H](CCC(=O)O)C(=O)NCC(=O)NCC(=O)N1CCC[C@H]1C(=O)N[C@@H](CO)C(=O)N[C@@H](CO)C(=O)NCC(N)=O` [WX004], at GIPR, the concentration for a half-maximal effect (EC50) was more than 20 nM and the “Agonistic activity on GIPR Max Activity (%)” value is 4.12%. In addition, the “PPB % unbound (human)” value in the series on human plasma albumin is recorded as “NA/NA”. Moreover, in series [1], the Tmax worked out at 12 h, the half-life was 22 h, the AUC(0-t) stood at 1.16 µM·h and the Cmax was determined as 36 nM.

`CC(C)C[C@H](NC(=O)[C@H](CC(C)C)NC(=O)[C@H](Cc1c[nH]c2ccccc12)NC(=O)[C@H](CCC(=O)O)NC(=O)[C@@H](NC(=O)[C@H](Cc1ccccc1)NC(=O)[C@H](CCC(=O)O)NC(=O)[C@@H]1CCCCNC(=O)CN(C(=O)COCCOCCNC(=O)COCCOCCNC(=O)CC[C@H](NC(=O)CCCCCCCCCCCCCCCCCCC(=O)O)C(=O)O)CC(=O)NCCCC[C@H](NC(=O)[C@H](CCC(=O)O)NC(=O)[C@H](CC(=O)O)NC(=O)[C@H](CC(C)C)NC(=O)[C@H](Cc2ccc(O)cc2)NC(=O)[C@H](CCCCN)NC(=O)[C@H](CO)NC(=O)[C@H](Cc2ccc(O)cc2)NC(=O)[C@H](CC(=O)O)NC(=O)[C@H](CO)NC(=O)[C@@H](NC(=O)[C@H](Cc2ccccc2)NC(=O)[C@@H](NC(=O)CNC(=O)[C@H](CCC(N)=O)NC(=O)C(C)(C)NC(=O)[C@@H](N)Cc2c[nH]cn2)[C@@H](C)O)[C@@H](C)O)C(=O)N[C@@H](CCCCN)C(=O)N[C@@H](C)C(=O)N1)C(C)C)C(=O)N[C@@H](CCC(=O)O)C(=O)NCC(=O)NCC(=O)N1CCC[C@H]1C(=O)N[C@@H](CO)C(=O)N[C@@H](CO)C(=O)NCC(N)=O` [WX001]: on GIPR, the EC50 is more than 20 nM and the “Agonistic activity on GIPR Max Activity (%)” value stood at 2.26%. Also, the “PPB % unbound (human)” value in the series on human plasma albumin is recorded as “NA/NA”. Also, the half-life at 2 μM in series [2] is more than 4.82 h. In series [1], the Tmax came to 8 h, the half-life was 21 h, the AUC(0-t) is 1.81 µM·h and the Cmax was 46 nM.

The record behind these values is patent publication US20250326815A1, “STAPLE-CONTAINING POLYPEPTIDES AND APPLICATION THEREOF” (Soter Biopharma Pte. Ltd., priority 2021, published 2025).
